Measured values published in patent publication US8575135B2 (Gilead Sciences, Inc., priority 2011, dated 2013).
Read-outs that look alike come from different tables or passages of the source.

Key:
Assay in all cases: microbe, parasite or virus in culture
[1] = test system: stable HCV 2a JFH-1 Rluc replicon cells (L31 present in NS5A); assay type: cell-based
[2] = test system: stable HCV 1a RLuc replicon cells (genotype 1a H77 replicon); assay type: cell-based; conditions: Hepatitis C virus
[3] = test system: stable HCV 1b RLuc replicon cells (genotype 1b Con1 replicon); assay type: cell-based
[4] = test system: 1a Pi-Rluc replicon with Q30R in genotype 1a NS5A; assay type: cell-based, HCV
How it was run: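 Renilla luciferase replicon assay: 1a Pi-RLuc replicon carrying NS5A Q30R, transfected transiently into cured-51 (Huh-7-derived) cells.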

[5] = test system: NS5A chimeric genotype 1b Con1 replicon with genotype 4a ED43 strain NS5A gene; assay type: cell-based, HCV
[6] = test system: NS5A chimeric genotype 2a JFH-1 replicon with genotype 2a J6 strain NS5A gene (M31 present); assay type: cell-based, HCV
[7] = test system: NS5A chimeric genotype 2a JFH-1 replicon with genotype 2b MD2b-1 strain NS5A gene (M31 present); assay type: cell-based, HCV
How it was run: (§1)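 Genotype 3a (S52) and 4a (ED43) NS5A chimeras use 1b Con1 Pi-RLuc replicons, transfected transiently; 2b MD2b-1 NS5A chimera (M31) uses 2a JFH-1 RLuc-Neo replicon, transient or stable.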

[8] = test system: NS5A chimeric genotype 1b Con1 replicon with genotype 3a S52 strain NS5A gene; assay type: cell-based, HCV
How it was run: as §1

[9] = Hepatitis C virus, read-out: 2a JFH
[10] = Hepatitis C virus, read-out: 2a JFH (nM)
[11] = Hepatitis C virus, read-out: 1b (nM)
[12] = Hepatitis C virus, read-out: 1a Q30R
[13] = Hepatitis C virus, read-out: 1a Q30R (nM)
[14] = Hepatitis C virus, read-out: 4a
[15] = Hepatitis C virus, read-out: 4a (s) (nM)
[16] = Hepatitis C virus, read-out: 4a (t) (nM)
[17] = Hepatitis C virus, read-out: 2a J6
[18] = Hepatitis C virus, read-out: 2a J6 (s) (nM)
[19] = Hepatitis C virus, read-out: 2a Jb (t) (nM)
[20] = Hepatitis C virus, read-out: 2b
[21] = Hepatitis C virus, read-out: 2b (s) (nM)
[22] = Hepatitis C virus, read-out: 2b (t) (nM)
[23] = Hepatitis C virus, read-out: 3a
[24] = Hepatitis C virus, read-out: 3a (nM)

| Molecule | EC50 [1, 9] [nM] | EC50 [1, 10] [nM] | EC50 ([2]; read-out: 1a) [nM] | EC50 ([2]; read-out: 1a (nM)) [nM] | EC50 [3, 11] [nM] | EC50 [4, 12] [nM] | EC50 [4, 13] [nM] | EC50 [5, 14] [nM] | EC50 [5, 15] [nM] | EC50 [5, 16] [nM] | EC50 [6, 17] [nM] | EC50 [6, 18] [nM] | EC50 [6, 19] [nM] | EC50 [7, 20] [nM] | EC50 [7, 21] [nM] | EC50 [7, 22] [nM] | EC50 [8, 23] [nM] | EC50 [8, 24] [nM] | further results |
| --- | --- | --- | --- | --- | --- | --- | --- | --- | --- | --- | --- | --- | --- | --- | --- | --- | --- | --- | --- |
| COC[C@H]1C[C@@H](c2nc3ccc4cc5c(cc4c3[nH]2)OCc2cc(-c3cnc([C@@H]4CCCN4C(=O)[C@@H](NC(=O)OC)C(C)C)[nH]3)ccc2-5)N(C(=O)[C@H](NC(=O)OC)c2ccccc2)C1 [Example LR-1, methyl{2-[2-{9-[2-(1-{2-[(methoxycarbonyl)amino]-3-methylbutanoyl}pyrrolidin-2-yl)-1H-imidazol-5-yl]-1,11-dihydroisochromeno[4′,3′:6,7]naphtho[1,2-d]imidazol-2-yl}-4-(methoxymethyl)pyrrolidin-1-yl]-2-oxo-1-phenylethyl}carbamate] | < 1 | 0.005 | < 1 | 0.011 | 0.016 | < 1 | 0.015 | < 1 | 0.012 | 0.01 | < 1 | 0.048 | 0.018 | < 1 | 0.024 | 0.01 | < 1 | 0.013 | – |
| COC[C@H]1C[C@@H](c2nc3ccc4cc5c(cc4c3[nH]2)OCc2cc(-c3cnc([C@@H]4CC6C[C@H]6N4C(=O)[C@@H](NC(=O)OC)C(C)C)[nH]3)ccc2-5)N(C(=O)[C@H](NC(=O)OC)c2ccccc2)C1 (stereo partly drawn) [Example LT, methyl{2-[2-{9-[2-(2-{2-[(methoxycarbonyl)amino]-3-methylbutanoyl}-2-azabicyclo[3.1.0]hex-3-yl)-1H-imidazol-5-yl]-1,11-dihydroisochromeno[4′,3′:6,7]naphtho[1,2-d]imidazol-2-yl}-4-(methoxymethyl)pyrrolidin-1-yl]-2-oxo-1-phenylethyl}carbamate] | < 1 | 0.004 | < 1 | 0.009 | 0.016 | < 1 | 0.01 | < 1 | 0.009 | 0.015 | < 1 | 0.047 | 0.01 | < 1 | 0.039 | 0.009 | < 1 | 0.012 | – |
| COC(=O)N[C@H](C(=O)N1CCC[C@H]1c1nc2c(ccc3cc4c(cc32)OCc2cc(-c3cnc([C@@H]5CCCN5C(=O)[C@H](NC(=O)OC)c5ccccc5)[nH]3)ccc2-4)[nH]1)C(C)C [Example MD] | < 1 | 0.006 | < 1 | 0.035 | 0.033 | < 1 | 0.192 | < 1 | 0.035 | 0.011 | < 1 | 0.439 | 0.073 | < 1 | 0.038 | 0.016 | < 1 | 0.006 | – |
| COC(=O)N[C@H](C(=O)N1CCC[C@H]1c1ncc(-c2ccc3c(c2)COc2cc4c(cc2-3)CCc2[nH]c([C@@H]3CCCN3C(=O)[C@@H](NC(=O)OC)C(C)C)nc2-4)[nH]1)C(C)C [Example ME] | < 1 | 0.012 | < 1 | 0.033 | 0.049 | 1 to 44 | 2.51 | < 1 | 0.029 | 0.016 | 1 to 4.99 | 16.1 | 3.43 | < 1 | 0.701 | 0.198 | < 1 | 0.015 | – |
| COC(=O)N[C@H](C(=O)N1CCC[C@H]1c1nc2c([nH]1)CCc1cc3c(cc1-2)OCc1cc(-c2cnc([C@@H]4CCCN4C(=O)[C@H](NC(=O)OC)c4ccccc4)[nH]2)ccc1-3)C(C)C [Example MF, methyl[1-(2-{5-[2-(1-{[(methoxycarbonyl)amino]-3-methyl-1-oxobutan-2-yl}pyrrolidin-2-yl)-1,4,5,11-tetrahydroisochromeno[4′,3′:6,7]naphtho[1,2-d]imidazol-9-yl]-1H-imidazol-2-yl}pyrrolidin-1-yl)-phenyl-1-oxoacet-2-yl]carbamate] | < 1 | 0.012 | < 1 | 0.059 | 0.058 | < 1 | 0.768 | < 1 | – | 0.025 | < 1 | 2.14 | 0.476 | < 1 | 0.083 | – | < 1 | 0.011 | – |
| COC(=O)N[C@H](C(=O)N1CCC[C@H]1c1ncc(-c2ccc3c(c2)COc2cc4c(cc2-3)CCc2[nH]c([C@@H]3CCCN3C(=O)[C@H](NC(=O)OC)c3ccccc3)nc2-4)[nH]1)C(C)C [Example MG] | < 1 | 0.012 | < 1 | 0.054 | 0.055 | < 1 | 0.663 | < 1 | 0.08 | 0.024 | < 1 | 2.29 | 0.337 | < 1 | 0.07 | – | < 1 | 0.01 | – |
| COC[C@H]1C[C@@H](c2ncc(-c3ccc4c(c3)COc3cc5c(ccc6nc([C@@H]7C[C@H]8C[C@H]8N7C(=O)[C@H](NC(=O)OC)c7ccccc7)[nH]c65)cc3-4)[nH]2)N(C(=O)[C@@H](NC(=O)OC)C(C)C)C1 [Example MV] | < 1 | 0.004 | < 1 | 0.01 | 0.014 | < 1 | 0.012 | < 1 | 0.011 | – | < 1 | 0.034 | 0.047 | < 1 | – | 0.041 | < 1 | 0.011 | – |
| COC[C@H]1C[C@@H](c2nc3ccc4cc5c(cc4c3[nH]2)OCc2cc(-c3cnc([C@@H]4CCCN4C(=O)[C@@H](NC(=O)OC)[C@@H](C)OC)[nH]3)ccc2-5)N(C(=O)[C@H](NC(=O)OC)c2ccccc2)C1 [Example OT, Methyl {(1R)-2-[(2S,4S)-2-(9-{2-[(2S)-1-{(2S,3R)-3-methoxy-2-[(methoxycarbonyl)amino]butanoyl}pyrrolidin-2-yl]-1H-imidazol-5-yl}-1,11-dihydroisochromeno[4′,3′:6,7]naphtho[1,2-d]imidazol-2-yl)-4-(methoxymethyl)pyrrolidin-1-yl]-2-oxo-1-phenylethyl}carbamate] | < 1 | 0.005 | < 1 | 0.011 | 0.02 | < 1 | 0.041 | – | – | – | < 1 | – | 0.013 | < 1 | – | 0.012 | < 1 | 0.024 | – |
| dimethyl (2S,2′S)-1,1′-((2S,2′S)-2,2′1-pyrrolidin-2-yl)-5H-naphtho[c,g]chromeno[8,9-d]imidazol-9-yl)-1H-imidazol-2-yl)pyrrolidin-1-yl))bis(3-methyl-1-oxobutane-2,1-diyl)dicarbamate [Example MC] | – | – | – | – | – | – | – | – | – | – | – | – | – | – | – | – | – | – | EC50 ([1]; genotype 2a JFH, EC50 range, read-out: 2a JFH): < 1 nM; EC50 ([1]; genotype 2a JFH, read-out: 2a JFH): 0.004 nM; EC50 ([3]; read-out: 1b): 0.017 nM; EC50 ([4]; 1a Q30R resistance mutant, EC50 range, read-out: 1a Q30R): < 1 nM; EC50 ([4]; 1a Q30R resistance mutant, read-out: 1a Q30R): 0.99 nM; EC50 ([5]; genotype 4a, EC50 range, transiently transfected cells (t), else stably replicating cells (s), read-out: 4a): < 1 nM; EC50 ([5]; stably replicating cells (s), read-out: 4a (s)): 0.028 nM; EC50 ([5]; transiently transfected cells (t), read-out: 4a (t)): 0.008 nM; EC50 ([6]; genotype 2a J6, EC50 range, transiently transfected cells (t), else stably replicating cells (s), read-out: 2a J6): 1 to 4.99 nM; EC50 ([6]; stably replicating cells (s), read-out: 2a J6 (s)): 3.52 nM; EC50 ([6]; transiently transfected cells (t), read-out: 2a Jb (t)): 1.16 nM; EC50 ([7]; genotype 2b, EC50 range, transiently transfected cells (t), else stably replicating cells (s), read-out: 2b): < 1 nM; EC50 ([7]; stably replicating cells (s), read-out: 2b (s)): 0.375 nM; EC50 ([7]; transiently transfected cells (t), read-out: 2b (t)): 0.162 nM; EC50 ([8]; genotype 3a, EC50 range, read-out: 3a): < 1 nM; EC50 ([8]; genotype 3a, read-out: 3a): 0.004 nM |
